Results reported in patent publication US20060223996A1, “IL-12 modulatory compounds” (Synta Pharmaceuticals Corp., priority 2004, published 2006).

Legend:
adjuvant arthritis (AA) = assay: Treatment of adjuvant arthritis in rats; type: in vivo, rat; details: female Lewis rats, oral once a day for 7 days (day 7-14) after MTB induction, vs vehicle
Method: Treatment of adjuvant arthritis in rats: Adjuvant arthritis (AA) was induced in female Lewis rats by the intracutaneous injection (base of the tail) of 0.1 mL of a 10 mg/mL bacterial suspension made from ground, heat-killed Mycobacterium tuberculosis (MTB) H37Ra suspended in incomplete Freund's adjuvant. Rats were given Compound 1 or vehicle orally once a day for 7 days (day 7-14), starting day 7 after mycobacterium induction. The development of polyarthritis was monitored daily by macroscopic inspection and assignment of an arthritis index to each animal, during the critical period (days 10 to 25 post-immunization).
The intensity of polyarthritis was scored according to the following scheme: (a) Grade each paw from 0 to 3 based on erythema, swelling, and deformity of the joints: 0 for no erythema or swelling; 0.5 if swelling is detectable in at least one joint; 1 for mild swelling and erythema; 2 for swelling and erythema of both tarsus and carpus; and 3 for ankylosis and bony deformity. Maximum score for all 4 paws was thus 12. […]
Experiments with the AA model were repeated four times. […] The arthritis score used in this model was a reflection of the inflammatory state of the structures monitored and the results therefore show the ability of the test compound to provide relief for this aspect of the pathology.

IL-12 [1] = assay: Human in vitro assay: inhibition of IL-12 production in IFNγ/LPS- or IFNγ/SAC-stimulated human PBMC or THP-1 cells (ELISA); type: cell-based; details: read-out: IC50 Range (representative in vitro IC50 data)
How it was run: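 PBMC (5×10^5 cells/well) primed with IFNγ 30 U/mL for 22 h then LPS 1 μg/mL, or IFNγ 100 U/mL then SAC 0.01%; THP-1 primed with IFNγ 100 U/mL for 22 h then SAC 0.025%, with compound in 0.25% DMSO. Supernatant IL-12 p70/p40 measured by sandwich ELISA after 18 h; IC50 derived; viability by MTS.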

IL-12 [2] = assay: Murine in vitro assay: IL-12 production in IFNγ/SAC-stimulated splenocytes of immunized Balb/c mice (ELISA); type: cell-based; details: Mus musculus, Splenocyte; Balb/c splenocytes stimulated with IFNγ and SAC
Method: Murine In Vitro Assay. Balb/c mice (Taconic, Germantown, N.Y.) were immunized with Mycobacterium tuberculosis H37Ra (Difco, Detroit, Mich.). The splenocytes were harvested 5 days and prepared in RPMI medium supplemented with 10% FCS and antibiotics in a flat bottom 96-well plate with 1×10^6 cells/well. The splenocytes were then stimulated with a combination of IFNγ (60 ng/mL) and SAC (0.025%) (LPS (20 μg/mL can be used instead of SAC)) in the presence of a test compound. Cell-free supernatants were taken 24 h later for the measurement of cytokines. The preparation of compound and the assessment of cell viability were carried out as described above. […] Mouse IL-12 p70, IL-10, IL-1β, and TNFα are measured using ELISA kits from Endogen, according to the manufacturer's instructions.

Row | SMILES | development of polyarthritis (adjuvant arthritis (AA)) | arthritic score (arthritic index) (adjuvant arthritis (AA); FIG. 1) | IC50 (IL-12 [1]) [µM] | IC50 (IL-12 [2]) [µM]
1 | Cc1[nH]c2ccc(NC(=O)c3cc(OCCN4CCOCC4)nc(N4CCOCC4)n3)cc2c1C [Compound 1, 2-Morpholin-4-yl-6-(2-morpholin-4-yl-ethoxy)-pyrimidine-4-carboxylic acid (2,3-dimethyl-1H-indol-5-yl)-amide] | delayed the development of polyarthritis in a dose-dependent manner | reduced the arthritic score | < 1 | 
2 | Cc1[nH]c2ccc(NC(=O)c3cc(OCCN)nc(N4CCOCC4)n3)cc2c1C [Compound 273, 6-(2-Amino-ethoxy)-2-morpholin-4-yl-pyrimidine-4-carboxylic acid (2,3-dimethyl-1H-indol-5-yl)-amide] |  |  | < 1 | 1.25
3 | CN(CCO)c1cc(NC(=O)Nc2ccc3[nH]c4c(c3c2)CCCC4)nc(N2CCOCC2)n1 [Compound 326, 1-{6-[(2-Hydroxy-ethyl)-methyl-amino]-2-morpholin-4-yl-pyrimidin-4-yl}-3-(6,7,8,9-tetrahydro-5H-carbazol-3-yl)-urea] |  |  | < 1 | 
4 | O=C(Nc1cccc(-n2cccn2)c1)Nc1cc(OCCN2CCOCC2)nc(N2CCOCC2)n1 [Compound 327, 1-[2-Morpholin-4-yl-6-(2-morpholin-4-yl-ethoxy)-pyrimidin-4-yl]-3-(3-pyrazol-1-yl-phenyl)-urea] |  |  | ≥ 1 | 
5 | O=C(Nc1cccc(-n2ccnc2)c1)Nc1cc(OCCN2CCOCC2)nc(N2CCOCC2)n1 [Compound 328, 1-(3-Imidazol-1-yl-phenyl)-3-[2-morpholin-4-yl-6-(2-morpholin-4-yl-ethoxy)-pyrimidin-4-yl]-urea] |  |  | ≥ 1 | 
6 | Cc1cc(NC(=O)Nc2cc(OCCN3CCOCC3)nc(N3CCOCC3)n2)ccc1C(C)C [Compound 329, 1-(4-Isopropyl-3-methyl-phenyl)-3-[2-morpholin-4-yl-6-(2-morpholin-4-yl-ethoxy)-pyrimidin-4-yl]-urea] |  |  | < 1 | 
7 | CC(C)c1cccc(NC(=O)Nc2cc(OCCN3CCOCC3)nc(N3CCOCC3)n2)c1 [Compound 330, 1-(3-Isopropyl-phenyl)-3-[2-morpholin-4-yl-6-(2-morpholin-4-yl-ethoxy)-pyrimidin-4-yl]-urea] |  |  | < 1 | 
